According to PubChem BioAssay (NCI):
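All cell lines were grown in 96-well plates and treated with compound for 48 hours. GI50: concentration for 50% inhibition of growth. TGI denotes the concentration required for complete inhibition of growth.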

How the values were obtained:
Assay in all cases: NCI-60 cell line screen, 48 h
[1] = test system: M14 melanoma
[2] = test system: OVCAR-3 ovarian
[3] = test system: SK-MEL-5 melanoma
[4] = test system: RPMI-8226 leukemia
[5] = test system: SK-MEL-28 melanoma
[6] = test system: EKVX NSCLC
[7] = test system: SNB-19 CNS
[8] = test system: ACHN renal
[9] = test system: RXF 393 renal
[10] = test system: SF-539 CNS

| SMILES | TGI [1] | TGI [2] | TGI [3] | TGI [4] | TGI [5] | TGI [6] | TGI [7] | TGI [8] | TGI [9] | TGI [10] | GI50 [1] | GI50 [2] | GI50 [3] | GI50 [4] | GI50 [5] | GI50 [6] | GI50 [7] | GI50 [8] | GI50 [9] | GI50 [10] |
| --- | --- | --- | --- | --- | --- | --- | --- | --- | --- | --- | --- | --- | --- | --- | --- | --- | --- | --- | --- | --- |
| COc1ccc(N/N=C(\CCN(C)C)c2ccccc2)cc1 | 24.2 µM | 11.4 µM | 21.2 µM | 7.5 µM | 7.83 µM | 56.9 µM | 14.5 µM | 4.84 µM | 29.7 µM | 3.69 µM | – | – | – | – | – | – | – | – | – | – |
| CC(=O)OC1CC2Oc3ccc(C)cc3C(C)(O2)C1=O (centres undefined) | > 100 µM | > 100 µM | > 100 µM | > 100 µM | > 100 µM | > 100 µM | > 100 µM | > 100 µM | > 100 µM | > 100 µM | – | – | – | – | – | – | – | – | – | – |
| Cc1nccc2c3ccc(OCc4cn(-c5ccc(Cl)cc5)nn4)cc3n(CCCc3ccccc3)c12 | 1.26 µM | 17.7 µM | > 33.3 µM | > 33.3 µM | 5.71 µM | > 33.3 µM | > 33.3 µM | 8.5 µM | 11.6 µM | 10.6 µM | 0.616 µM | 6.68 µM | 25.8 µM | 2.45 µM | 1.3 µM | 12.3 µM | > 33.3 µM | 1.57 µM | 4.45 µM | 4.24 µM |
| O=C1c2ccccc2NC1(c1ccccc1)c1c(-c2ccccc2)[nH]c2ccccc12 (centres undefined) | > 100 µM | > 100 µM | – | > 100 µM | > 100 µM | > 100 µM | > 100 µM | > 100 µM | 64.1 µM | > 100 µM | – | – | – | – | – | – | – | – | – | – |
| CCCCCCCCCCCCCCCC[N+](C)(CCO)Cc1cnc[nH]1 (centres undefined) | 2.22 µM | 3.31 µM | – | – | 9.78 µM | 6.63 µM | – | 19.4 µM | – | 4.75 µM | 0.598 µM | 0.995 µM | – | – | 2.7 µM | 1.47 µM | – | 3.13 µM | – | 1.78 µM |
| CC(=O)C1C(=O)NC(=O)C1=O (centres undefined) | > 100 µM | > 100 µM | > 100 µM | > 100 µM | > 100 µM | > 100 µM | > 100 µM | > 100 µM | > 100 µM | > 100 µM | – | – | – | – | – | – | – | – | – | – |
| COc1ccc(NC(=O)CC/C(CC(=O)C(C)(C)C)=N\NC(=O)C(N)=O)cc1 | > 100 µM | > 100 µM | – | – | > 100 µM | > 100 µM | > 100 µM | > 100 µM | > 100 µM | > 100 µM | – | – | – | – | – | – | – | – | – | – |
| O=Cc1ccc(-c2ccc(-c3nc4ccccc4o3)cc2)s1 | 70 µM | 45.4 µM | 45.2 µM | – | > 100 µM | 77 µM | > 100 µM | > 100 µM | > 100 µM | – | 26.6 µM | 16.5 µM | 21.8 µM | – | 24.1 µM | 20.3 µM | 49.2 µM | 31.5 µM | 49.4 µM | – |
| Cc1[nH]c2ccccc2c1-c1cc(-c2cc(-c3c(C)[nH]c4ccccc34)nc(N)n2)nc(N)n1 | > 100 µM | > 100 µM | > 100 µM | > 100 µM | > 100 µM | > 100 µM | > 100 µM | > 100 µM | – | > 100 µM | – | – | – | – | – | – | – | – | – | – |
